The source of these data is ChEMBL document CHEMBL5136980, “Indoleamine 2,3-dioxygenase 1 (IDO1) inhibitors and PROTAC-based degraders for cancer therapy” (Eur J Med Chem, 2022).

A word on the DC50: it is the concentration at which degradation of the target reaches its halfway point. Broadly, the Emax is the greatest response seen or fitted, relative to the assay's reference. The term bioavailability denotes the share of a dose that reaches the circulation, judged against a reference dose that is usually intravenous. A high value points to good availability. In general, IC50 refers to the concentration needed to halve the response being measured. The TGI is the reduction of tumour growth relative to the control group. A lower TGI goes with little slowing of growth.

For the first data set, the target named is T1, Protein cereblon/Indoleamine 2,3-dioxygenase 1 (Homo sapiens, UniProt P14902+Q96SW2). In words: Protac activity at CRBN/IDO1 in human HeLa cells assessed as IDO1 protein degradation.
Details: not given
In kind it is cell-based.
Target sequence in this assay (P14902 whole entry): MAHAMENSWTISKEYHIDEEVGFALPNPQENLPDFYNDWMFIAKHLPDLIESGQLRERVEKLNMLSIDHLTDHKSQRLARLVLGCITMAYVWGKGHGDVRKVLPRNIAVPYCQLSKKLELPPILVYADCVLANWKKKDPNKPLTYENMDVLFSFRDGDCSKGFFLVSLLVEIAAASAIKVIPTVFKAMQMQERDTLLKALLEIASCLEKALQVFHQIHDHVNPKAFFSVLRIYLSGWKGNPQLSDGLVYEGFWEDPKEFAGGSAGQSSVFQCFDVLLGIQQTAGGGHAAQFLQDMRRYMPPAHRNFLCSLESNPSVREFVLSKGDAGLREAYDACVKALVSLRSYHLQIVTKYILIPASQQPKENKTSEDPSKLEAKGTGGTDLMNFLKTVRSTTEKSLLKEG
Target sequence in this assay (Q96SW2 whole entry): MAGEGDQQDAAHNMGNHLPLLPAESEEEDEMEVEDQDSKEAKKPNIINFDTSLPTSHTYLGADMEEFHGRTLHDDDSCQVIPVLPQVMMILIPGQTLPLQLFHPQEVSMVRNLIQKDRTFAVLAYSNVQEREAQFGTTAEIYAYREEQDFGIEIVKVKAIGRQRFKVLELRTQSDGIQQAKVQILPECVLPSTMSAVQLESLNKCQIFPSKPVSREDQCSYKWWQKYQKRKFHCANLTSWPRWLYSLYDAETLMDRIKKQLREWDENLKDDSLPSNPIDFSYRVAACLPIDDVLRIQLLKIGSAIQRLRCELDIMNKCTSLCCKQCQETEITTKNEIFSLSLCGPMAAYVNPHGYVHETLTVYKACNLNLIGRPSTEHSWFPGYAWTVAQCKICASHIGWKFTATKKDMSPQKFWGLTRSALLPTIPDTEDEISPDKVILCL
Consider `O=C1CCC(N2C(=O)c3cccc(NCCOCCOCCOCCOCCOCCOCCOCCNCCNc4nonc4/C(=N/O)Nc4cccc(Br)c4)c3C2=O)C(=O)N1` (configuration not stated), for which the DC50 stood at 2840 nM.

In a further data set the target is T1, Protein cereblon/Indoleamine 2,3-dioxygenase 1. As to the kind of experiment: Protac activity at CRBN/IDO1 in human HeLa cells assessed as IDO1 protein degradation relative to control. In kind it is cell-based.
Details: not given
Target sequence in this assay (P14902 whole entry, looked up): as the sequence (P14902 whole entry) above
Target sequence in this assay (Q96SW2 whole entry, looked up): as the sequence (Q96SW2 whole entry) above
As to `O=C1CCC(N2C(=O)c3cccc(NCCOCCOCCOCCOCCOCCOCCOCCNCCNc4nonc4/C(=N/O)Nc4cccc(Br)c4)c3C2=O)C(=O)N1` (configuration not stated), the Emax was 93%.

Test system in a further data set: not listed separately
As to the kind of experiment: Oral bioavailability in ICR mouse 30 mg/kg measured after 0.0833 to 24 hrs by liquid chromatography/tandem mass spectrometric analysis. In kind it is ADME, organism-based. To be noted: in vivo, time 0.0833-24 hrs.
For `O=S(=O)(NCCCOc1ccccc1-c1c[nH]cn1)C(F)(F)F`, the bioavailability worked out at 96%.

The next data set deals with T2, Indoleamine 2,3-dioxygenase 1 (Homo sapiens, UniProt P14902). In words: Inhibition of IDO1 in IFN-gamma stimulated human HeLa cells in presence of heme measured after 20 hrs by heme-competitive binding assay. In kind it is cell-based.
T2 sequence (P14902 whole entry): as the sequence (P14902 whole entry) above
Details: not given
Turning to `C[C@@H](C(=O)Nc1ccc(C#N)cc1)[C@H]1CC[C@@H](c2ccnc3ccc(F)cc32)CC1`, the IC50 is below 100 nM.

In another data set the target is T2, Indoleamine 2,3-dioxygenase 1. In words: Inhibition of IDO1 (unknown origin) using L-tryptophan incubated for 30 mins by microplate reader method.
Details: not given
Regarding `CC1=CCC[C@@H](C)[C@]1(C)C[C@]1(C)[C@@H](O)CC[C@]2(C)[C@@]3(C)CC[C@]4(C)c5c(C(O)C(=O)O)ccc(O)c5C[C@H]4[C@]3(C)CC[C@]21C` (some centres not stated), the IC50 is 240 nM.

Another data set shares this target. In words: Inhibition of IDO1 (unknown origin).
Details: not given
Regarding `O=C(Nc1ccc(Cl)cc1)N[C@H]1CC[C@H](c2ccnc3ccc(F)cc32)CC1`, the IC50 is below 50 nM. On the same count and under the same terms, with `CC(C(=O)Nc1ccc(Cl)cc1)C1CCC(c2ccnc(C(F)(F)F)c2)CC1` (configuration not stated) the figure was below 50 nM; with `Cn1cc(-c2ccc(NC(=O)N3CCC(C(=O)/C(=N/O)Nc4ccc(F)c(Br)c4)CC3)cc2)cn1`, 4 nM; with `Cn1cc(-c2cc(F)c(NC(=O)NCC3c4ccccc4-c4cncn43)cc2F)cn1` (configuration not stated), 16 nM. The same measure, in the same setting: with `C[C@@H](NC(=O)c1ccc(Cl)cc1)[C@H]1CC[C@@H](c2ccnc3ccc(F)cc32)CC1` the figure was below 50 nM; with `C[C@@H](NS(=O)(=O)c1cccc(Cl)c1)[C@H]1CC[C@@H](c2ccnc3ccc(F)cc32)CC1`, below 50 nM; with `O/N=C(/CCC1CCCCC1)Nc1cccc(Cl)c1`, below 1 nM. In turn, `N#Cc1ccc(NC(=O)NCC2c3ccccc3-c3cncn32)cc1` (configuration not stated) had an IC50 below 50 nM.

In turn, `CCC(C(=O)Nc1ccc(Cl)cc1)[C@H]1CC[C@H](Oc2ccnc3ccccc23)CC1` (some centres not stated) registered an IC50 above 50 nM. The compound `COC1CN(CCNc2nc3c(F)c(F)cc(/C(=N/O)Nc4cccc(Br)c4)c3[nH]2)C1` gave an IC50 of 111 nM. `O=S(=O)(Nc1cccc2cnccc12)c1ccc2c(c1)OCCO2`: the IC50 was above 50 nM. Still for that read-out and setting: in the case of `CC(C)Oc1ccc(S(=O)(=O)NC2CCCc3cnccc32)cc1` (configuration not stated) it was below 50 nM; in that of `O=C1CCC(N2C(=O)c3cccc(NCCOCCOCCOCCOCCOCCOCCOCCNCCNc4nonc4/C(=N/O)Nc4cccc(Br)c4)c3C2=O)C(=O)N1` (configuration not stated), 1070 nM. Same read-out and setting: with `CC(C(=O)Nc1ccc(Cl)cc1)N1CCC(Oc2ccnc3ccc(F)cc23)CC1` (configuration not stated) the figure was above 50 nM.

Compound `Nc1nonc1/C(=N/O)N1Cc2ccccc2C1` had an IC50 of 1.57 nM. Consider `OC1CCC(C(F)(F)CC2c3c(F)cccc3-c3cncn32)CC1` (configuration not stated), for which the IC50 is below 100 nM. On the same count and under the same terms, in the case of `O[C@@H](C[C@H]1c2ccccc2-c2cncn21)c1cc2ccoc2cc1F` it was below 200 nM; in that of `OC(CC1c2cc(F)ncc2-c2cncn21)C1CCCCC1` (configuration not stated), below 100 nM. The same measure, in the same setting: with `CC(C(=O)Nc1ccc(Cl)cc1)[C@H]1CC[C@H](Oc2ccnc(C(F)(F)F)c2)CC1` (some centres not stated) the figure was above 250 nM.

The subject of another data set is HeLa. In words: Cytotoxicity against human HeLa cells assessed as cell viability incubated for 48 hrs by MTT assay. In kind it is functional, cell-based.
Details: not given
(Formazan colour is commonly taken as a measure of viable cells.)
`O=C1CCC(N2C(=O)c3cccc(NCCOCCOCCOCCOCCOCCOCCOCCNCCNc4nonc4/C(=N/O)Nc4cccc(Br)c4)c3C2=O)C(=O)N1` (configuration not stated): the IC50 amounted to 37400 nM.

The subject of the next data set is Ehrlich. As to the kind of experiment: Antitumor activity against mouse Ehrlich ascites carcinoma allografted in Swiss albino mouse assessed tumor growth inhibition by measuring CD8+ T cells relative to control. In kind it is functional.
Details: not given
The compound `NC(=O)c1n[nH]nc1-c1ccc(F)c(F)c1` returned a TGI of 96%.

The species named for another data set is Homo sapiens. In words: Ratio of IC50 for IDO1 (unknown origin) to IC50 for IDO1 in human HeLa cells. In kind it is cell-based.
Details: not given
With `Clc1ccc(Nc2cn[nH]n2)cc1`, the Ratio IC50 was above 500.
